Patent publication US20220204510A1, “2,3-DIHYDRO-1H-PYRROLIZINE-7-FORMAMIDE DERIVATIVE AND APPLICATION THEREOF” (CHIA TAI TIANQING PHARMACEUTICAL GROUP CO., LTD., priority 2018, published 2022)
Like-named read-outs stand apart in the source and are kept apart here.

Experiments:
[1] = Metabolic stability in liver microsomes; type: in vitro ADME; conditions: for half-life at 1 μM: 1 μM compound, 0.5 mg/mL; for microsomal CLint at 1 μM: read-out: CLint(mic)
Protocol: Experimental objective: to evaluate the metabolic stability of test compounds 18 and 25 in liver microsomes of rats, beagle dogs and cynomolgus monkeys
Experimental procedures: first, the test compound (10 mM) was subjected to a two-step dilution, where the compound was diluted to an intermediate concentration of 100 μM with 100% methanol, and the working solution was diluted to 10 μM with a potassium phosphate buffer; eight 96-well incubation plates were prepared, and named T0, T5, T10, T20, T30, T60, Blank and NCF60, respectively; the reaction time points corresponding to the first 6 incubation plates were 0, 5, 10, 20, 30 and 60 min, respectively; for the Blank plate, neither the test compound nor a control compound was added, and for the NCF60 plate, potassium phosphate buffer was used in an incubation of 60 min in place of a NADPH regeneration system solution; 10 μL of the test compound working solution and 80 μL of the microsome working solution (liver microsome protein concentration was 0.625 mg/mL) were added to the T0, T5, T10, T20, T30, T60 and NCF60 plates, while only the microsome working solution was added to the Blank plate, and all the incubation plates were then placed in a 37° C. water bath for pre-incubation for about 10 min; after the pre-incubation, 10 μL of a NADPH regeneration system working solution was added into each sample well of all the plates except the NCF60 plate and T0 plate to start the reaction, and 10 μL of potassium phosphate buffer was added to each well of the NCF60 plate; therefore, in the test compound or control compound samples, the final reaction concentrations of the compound, testosterone, diclofenac and propafenone were 1 μM, the concentration of the liver microsomes was 0.5 mg/mL, and the final concentrations of DMSO and acetonitrile in the reaction system were 0.01% (v/v) and 0.99% (v/v), respectively; after incubation for an appropriate time (such as 5, 10, 20, 30, and 60 min), 300 μL of a stop solution (acetonitrile solution containing 100 ng/mL tolbutamide and 100 ng/mL labetalol) was added to each sample well to stop the reaction; 300 μL of the stop solution and then 10 μL of the NADPH working solution were added to the T0 plate, all the sample plates were shaken and centrifuged in a centrifuge (3220×g) for 20 min, and then 100 μL of supernatant was taken from each well and diluted with 300 μL of pure water for liquid chromatography-tandem mass spectrometry analysis.

[2] = Experiment on cytotoxicity (CellTiter-Glo, 3 days); type: cell-based; conditions: 3 days incubation, read-out: 50% cytotoxic concentration (CC50)
Protocol: • 1. The compound was diluted with DMSO (dimethyl sulfoxide) in a 3-fold gradient for 9 concentrations, and added into a 96-well plate in duplicate. The compound concentration was 200-fold of the final test concentration. • 2. The cells were rinsed with PBS (phosphate buffered saline) once, added with 0.25% trypsin and digested for about 2-5 min in a 37° C., 5% CO2 incubator. Then the digestion was terminated with a cell culture medium and the cells were dispersed into single cells by pipetting with a pipettor. • 3. The cell density was counted with a cell counter, and adjusted to the required density with the medium. • 4. The cells were added into a 96-well plate that had been added with the compound. The final concentration of DMSO in each well was 0.5%. Wells containing 0.5% DMSO were used as non-toxic negative controls, and wells containing the cell culture medium were used as 100% cytotoxicity controls. Then the cell plate was incubated in a 37° C., 5% CO2 cell incubator for 3 days. • 5. The chemiluminescence signal (RLU, relative chemiluminescence unit) of each well in the cell plate was detected with the cell viability detection kit CellTiter-Glo using the multi-functional microplate reader Envision, with instructions on the kit followed. • 6. The raw data (RLU) were substituted into the following formula to calculate the cell viability of each well (cell viability %): […]

[3] = Sprague-Dawley (SD), rat, SD rats liver microsomes
[4] = cynomolgus monkey, Cynomolgus monkeys liver microsomes
[5] = dog, Beagle dogs liver microsomes

SMILES	CLint scaled at 1 μM [1, 3]	half-life at 1 μM [1, 3]	microsomal CLint at 1 μM [1, 3]	CLint scaled at 1 μM [1, 4]	half-life at 1 μM [1, 4]	microsomal CLint at 1 μM [1, 4]	CLint scaled at 1 μM [1, 5]	half-life at 1 μM [1, 5]	microsomal CLint at 1 μM [1, 5]	CC50 at 3 days [2]
C[C@]1(NC(=O)C(=O)c2c(Cl)c(C(=O)Nc3ccc(F)c(F)c3)c3n2CCC3)CC[C@H](CC(=O)O)CC1 [Compound 18]	< 17.3 mL/min/kg	> 2.42 h	< 9.6 µL/min/mg	< 13 mL/min/kg	> 2.42 h	< 9.6 µL/min/mg	< 13.8 mL/min/kg	> 2.42 h	< 9.6 µL/min/mg	> 50 µM
C[C@]1(NC(=O)C(=O)c2c(Cl)c(C(=O)Nc3cc(F)c(F)c(F)c3)c3n2CCC3)CC[C@H](CC(=O)O)CC1 [Compound 25]	< 17.3 mL/min/kg	> 2.42 h	< 9.6 µL/min/mg	< 13 mL/min/kg	> 2.42 h	< 9.6 µL/min/mg	< 13.8 mL/min/kg	> 2.42 h	< 9.6 µL/min/mg	> 50 µM
